US10759796B2, “CXCR4 inhibitors and uses thereof” (X4 Pharmaceuticals, Inc., priority 2016, dated 2020)
pIC50: −log10 of the molar value.

Assays:
in vitro = details: human, Caco-2, pH 7.4
In short: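 Compounds at 10 μM in HBSS pH 7.4 (0.1–0.3% DMSO) were dosed on Caco-2 monolayers, apical-to-basolateral and basolateral-to-apical, for 90 min at 37 °C, in duplicate. Monolayer integrity was checked by TEER and lucifer yellow flux, read by fluorescence at 485/535 nm. Compound was quantified by LC-MS/MS and Papp calculated.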

[1] = target: CXCR-4 transfected U87 cell line (U87.CXCR4) (Homo sapiens (Human), UniProt P61073); test: Intracellular CXCL-12-induced calcium mobilization assay (FLIPR); format: cell-based; details: U87.CXCR4 cells, CXCL-12 25-50 ng/mL; read-out: IC50 CXCL-12 Ca2+ flux U87.CXCR4+
In short: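 U87.CXCR4 cells were seeded at 20,000 per well, cultured 12 hours, then loaded with 4 μM Fluo-2 AM for 45 min at 37° C. in HBSS with 20 mM HEPES and 0.2% BSA, pH 7.4. Calcium flux triggered by CXCL-12 (25-50 ng/mL) was tracked over time by FLIPR fluorescence at 37° C.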

[2] = target: Jurkat cells expressing CXCR4 (Homo sapiens (Human), UniProt P61073); test: Chemokine (CXCL12-AF647) binding inhibition assay; details: CXCL12-AF647 25 ng/mL, read-out: IC50 CXCL-12 binding Jurkat
In short: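 Cells in HBSS, 20 mM HEPES, 0.2% BSA, pH 7.4, preincubated 15 min at room temperature with compound, then 25 ng/mL CXCL12-AF647 for 30 min. After washing and paraformaldehyde fixation, bound ligand read by flow cytometry; percent inhibition calculated from MFI relative to unlabeled and ligand-only controls.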

[3] = Fraction of drug unbound to brain proteins, mouse; format: in vitro ADME; details: read-out: Fu (b) %
[4] = Fraction of drug unbound to plasma proteins, mouse; format: in vitro ADME; details: read-out: Fu (p) %
[5] = Mouse plasma proteins (Table 9)

Sequence of Jurkat cells expressing CXCR4 (P61073 whole entry): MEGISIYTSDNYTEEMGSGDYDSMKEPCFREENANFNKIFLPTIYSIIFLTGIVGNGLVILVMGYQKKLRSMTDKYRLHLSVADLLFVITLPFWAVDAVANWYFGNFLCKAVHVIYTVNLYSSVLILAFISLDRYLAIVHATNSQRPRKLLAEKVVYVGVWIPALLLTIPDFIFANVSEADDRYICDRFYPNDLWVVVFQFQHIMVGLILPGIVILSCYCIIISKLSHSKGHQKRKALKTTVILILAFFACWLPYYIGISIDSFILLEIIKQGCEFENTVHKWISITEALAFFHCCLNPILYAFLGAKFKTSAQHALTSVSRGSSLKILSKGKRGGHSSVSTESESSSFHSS
Sequence of CXCR-4 transfected U87 cell line (U87.CXCR4) (P61073 whole entry): as above

Papp A→B at 90 min, 10 μM (in vitro) | Papp B→A at 90 min, 10 μM (in vitro) | efflux ratio at 90 min, 10 μM (in vitro) | pIC50 [1] | pIC50 [2] | fraction unbound ([3]; Mouse brain proteins (Table 9)) | fraction unbound [4, 5] | Structure (SMILES) | fraction unbound ([3]; Mouse brain proteins (Table 12)) | fraction unbound ([4]; Mouse plasma proteins (Table 12))
0.1 to 10 ×10⁻⁶ cm/s | 0.1 to 10 ×10⁻⁶ cm/s | 0.1 to 10 | 6.00 to 7.00 | 7.00 to 11.00 | 0.001 | 0.021 | Cc1cccnc1[C@@H]1CCC[C@H](c2nc3cccc(N4CCN(C(C)C)CC4)n3c2Br)N1C [Compound I-20] | – | –
10 to 30 ×10⁻⁶ cm/s | 10 to 30 ×10⁻⁶ cm/s | 0.1 to 10 | 6.00 to 7.00 | 7.00 to 11.00 | 0.006 | 0.053 | Cc1cccnc1[C@@H]1CCC[C@H](c2nc3cccc(N4CCN(C)CC4)n3c2Cl)N1 [Compound I-146] | – | –
10 to 30 ×10⁻⁶ cm/s | 10 to 30 ×10⁻⁶ cm/s | 0.1 to 10 | 7.00 to 11.00 | 6.00 to 7.00 | – | – | Cc1cccnc1[C@@H]1CCC[C@H](c2cn3c(-c4cccnc4)cccc3n2)N1C [Compound I-6] | – | –
0.1 to 10 ×10⁻⁶ cm/s | 0.1 to 10 ×10⁻⁶ cm/s | 0.1 to 10 | 7.00 to 11.00 | 7.00 to 11.00 | 0.003 | 0.028 | Cc1cccnc1[C@@H]1CCC[C@H](c2nc3cccc(N4CCC(N(C)C)CC4)n3c2Cl)N1C [Compound I-114] | – | –
10 to 30 ×10⁻⁶ cm/s | 10 to 30 ×10⁻⁶ cm/s | 0.1 to 10 | 6.00 to 7.00 | 7.00 to 11.00 | – | – | CN1CCN(c2cccc3nc([C@@H]4CCC[C@H](c5ncccc5Cl)N4)cn23)CC1 (single isomer, unassigned) [Compound I-189] | – | –
0.1 to 10 ×10⁻⁶ cm/s | 10 to 30 ×10⁻⁶ cm/s | 0.1 to 10 | 7.00 to 11.00 | 7.00 to 11.00 | 0.071 | 0.249 | Cc1cccnc1[C@@H]1CCC[C@H](c2cn3c(N4CCN(C)CC4)cccc3n2)N1 [Compound I-187] | – | –
0.1 to 10 ×10⁻⁶ cm/s | 0.1 to 10 ×10⁻⁶ cm/s | 0.1 to 10 | 7.00 to 11.00 | 7.00 to 11.00 | 0.001 | 0.028 | CCN1CCN(c2cccc3nc([C@H]4CCC[C@@H](c5ncccc5C)N4C)c(Br)n23)CC1 [Compound I-19] | – | –
0.1 to 10 ×10⁻⁶ cm/s | 0.1 to 10 ×10⁻⁶ cm/s | 0.1 to 10 | 7.00 to 11.00 | 7.00 to 11.00 | 0.002 | 0.054 | Cc1cccnc1[C@@H]1CCC[C@H](c2nc3cccc(N4CCN(C)CC4)n3c2Cl)N1C [Compound I-18] | – | –

Structure (SMILES) | Papp A→B at 90 min, 10 μM (in vitro) | Papp B→A at 90 min, 10 μM (in vitro) | efflux ratio at 90 min, 10 μM (in vitro) | pIC50 [1] | pIC50 [2] | fraction unbound ([3]; Mouse brain proteins (Table 9)) | fraction unbound [4, 5] | fraction unbound ([3]; Mouse brain proteins (Table 12)) | fraction unbound ([4]; Mouse plasma proteins (Table 12))
CN1CCN(c2cccc3nc([C@H]4CCC[C@@H](c5ncccc5Cl)N4)cn23)CC1 (racemic) [Compound I-149] | 10 to 30 ×10⁻⁶ cm/s | 10 to 30 ×10⁻⁶ cm/s | 0.1 to 10 | 7.00 to 11.00 | 7.00 to 11.00 | 0.026 | 0.099 | – | –
CN1CCN(c2cccc3nc([C@H]4CCC[C@@H](c5ncccc5Cl)N4)cn23)CC1 (single isomer, unassigned) [Compound I-188] | 10 to 30 ×10⁻⁶ cm/s | 10 to 30 ×10⁻⁶ cm/s | 0.1 to 10 | 7.00 to 11.00 | 7.00 to 11.00 | – | – | 0.054 | 0.143
